Assay results taken from article PMC11050087, “Polyphenols from Maackia amurensis Heartwood Protect Neuronal Cells from Oxidative Stress and Prevent Herpetic Infection” (International Journal of Molecular Sciences, 2024).

Columns and labels:
[1] = tested on: 6-OHDA-treated Neuro-2a cells; assay: 6-OHDA-induced neurotoxicity model, cell viability test (MTT); assay type: cell-based, murine; conditions: compounds at 10, 1, 0.1 µM; 6-OHDA 100 µM
HSV-1 [2] = assay: Virucidal activity, RT-PCR assay (HSV-1 pretreated with compounds); assay type: cell-based, HSV-1 strain L2; conditions: for Ct: 72 h; for −ΔCt: vs virus control; for activity at 0.1 µg/mL / activity at 1 µg/mL / activity at 10 µg/mL / log reduction at 0.1 µg/mL / log reduction at 1 µg/mL / log reduction at 10 µg/mL: Human alphaherpesvirus 1, 72 h; for activity at 0.1 µg/mL / activity at 1 µg/mL / activity at 10 µg/mL: read-out: 2^−ΔCt; for log reduction at 0.1 µg/mL / log reduction at 1 µg/mL / log reduction at 10 µg/mL: read-out: log10
[3] = tested on: 6-OHDA-treated Neuro-2a cells; assay: Apoptosis profile by flow cytometry (Annexin V & Dead Cell Kit); assay type: cell-based, murine; conditions: Table 1; polyphenols 10 µM, 6-OHDA 100 µM, 24 h; mean
Protocol: We investigated the effect of polyphenolic compounds from M. amurensis on apoptosis profile in 6-OHDA-treated Neuro-2a cells by flow cytometry using fluorescent annexin V conjugate as a fluorescent dye. We observed significant changes in apoptosis profile in Neuro-2a cells after 6-OHDA-treatment. […] Polyphenols 3, 6 and 13 diminished the neurotoxic effect of 6-OHDA-treatment.
The cells were incubated for 1 h in a 6-well plate (5 × 10^4 cells/mL) with polyphenolic compounds (10 µM). Then, 6-OHDA (100 µM) was added, and cell suspension was incubated for 24 h. After incubation, the maintenance media was collected, and the cells were washed by cold PBS twice and incubated with trypsin-EDTA solution. The cell suspension was washed with cold PBS twice again, centrifugated and then used for apoptosis detection by Muse® Annexin V & Dead Cell Kit in accordance with the manufacturer’s instructions (Luminex, Austin, TX, USA). The fluorescence was measured with Muse® Cell Analyzer (Luminex, Austin, TX, USA) and the data were processed by Muse 1.5 Analysis software (Luminex, Austin, TX, USA).

HSV-1 [4] = tested on: HSV-1; design: method as in PMID 36985562; conditions: ref [22], cited from earlier work; for Simultaneous Treatment SI: ratio of CC50 to IC50; for Simultaneous Treatment IC50 / IC50: virus and compound added to cells simultaneously, CPE assay; for IC50: read-out: Simultaneous Treatment IC50

Oc1ccc(/C=C/c2cc(O)cc(O)c2)cc1 [Compound 1, resveratrol]
effect on viability of 6-OHDA-treated Neuro-2a cells (in words) [1]: did not cause any increase in the viability | Ct (HSV-1 [2]; 0.1 µg/mL): 18.1 ± 2.2 | −ΔCt (HSV-1 [2]; 0.1 µg/mL): 0 | Ct (HSV-1 [2]; 1 µg/mL): 20.4 ± 2.8 | −ΔCt (HSV-1 [2]; 1 µg/mL): −2.3 ± 0.2 | anti-HSV-1 activity by RT-PCR (in words) (HSV-1 [2]; 10 µg/mL): moderate anti-HSV-1 activity | Ct (HSV-1 [2]; 10 µg/mL): 24.6 ± 2.9 | −ΔCt (HSV-1 [2]; 10 µg/mL): −6.5 ± 0.8 | activity at 0.1 µg/mL (HSV-1 [2]): 100% | activity at 1 µg/mL (HSV-1 [2]): 20.3 ± 2.4% | activity at 10 µg/mL (HSV-1 [2]): 1.1 ± 0.14% | log reduction at 0.1 µg/mL (HSV-1 [2]): 0 | log reduction at 1 µg/mL (HSV-1 [2]): 0.7 ± 0.09 | log reduction at 10 µg/mL (HSV-1 [2]): 1.9 ± 0.2

O=C1C[C@@H](c2ccc(O)cc2)Oc2cc(O)ccc21 [Compound 6, liquiritigenin]
Dead [3]: 0.61 ± 0.13% | Early apop. [3]: 27.67 ± 1.09 % | Late apop./Dead [3]: 10.89 ± 0.86% | Live [3]: 61.83 ± 0.09 % | virucidal activity against HSV-1 by RT-PCR (in words) (HSV-1 [2]; 0.1, 1 and 10 µg/mL): did not demonstrate virucidal activity

Oc1cc(O)cc(/C=C/c2ccc3c(c2)O[C@H](c2cc(O)cc(O)c2)[C@@H](c2ccc(O)c(O)c2)O3)c1 [Compound 9, maackin]
effect on viability of 6-OHDA-treated Neuro-2a cells (in words) [1]: did not show significant activity | Ct (HSV-1 [2]; 0.1 µg/mL): 18.6 ± 2.4 | −ΔCt (HSV-1 [2]; 0.1 µg/mL): −0.50 ± 0.05 | inhibition of HSV-1 replication by RT-PCR (in words) (HSV-1 [2]; 1 µg/mL): inhibited the replication of HSV-1 | Ct (HSV-1 [2]; 1 µg/mL): 25.9 ± 2.8 | −ΔCt (HSV-1 [2]; 1 µg/mL): −7.8 ± 0.9 | reduction in viral DNA (HSV-1 [2]; 10 µg/mL): 4.6 log10 | Ct (HSV-1 [2]; 10 µg/mL): 33.3 ± 4.3 | −ΔCt (HSV-1 [2]; 10 µg/mL): −15.2 ± 1.8 | activity at 0.1 µg/mL (HSV-1 [2]): 70.7 ± 9.2% | activity at 1 µg/mL (HSV-1 [2]): 0.449 ± 0.06% | activity at 10 µg/mL (HSV-1 [2]): 0.00266 ± 0.0003% | log reduction at 0.1 µg/mL (HSV-1 [2]): 0.15 ± 0.02 | log reduction at 1 µg/mL (HSV-1 [2]): 2.3 ± 0.3 | log reduction at 10 µg/mL (HSV-1 [2]): 4.6 ± 0.6 | Simultaneous Treatment SI (HSV-1 [4]): 15.3 ± 1.9 | Simultaneous Treatment IC50 (HSV-1 [4]): 17.6 ± 2.3 µg/mL | IC50 (HSV-1 [4]): 36.2 ± 4.7 µM

Oc1ccc(/C=C/c2cc(O)cc3c2[C@H](c2cc(O)cc(O)c2)[C@@H](c2ccc(O)c(O)c2)O3)cc1 [Compound 13, scirpusin A]
Dead [3]: 0.73 ± 0.15% | Early apop. [3]: 30.18 ± 1.13 % | Late apop./Dead [3]: 12.2 ± 0.34% | Live [3]: 56.90 ± 1.32 % | Ct (HSV-1 [2]; 0.1 µg/mL): 18.6 ± 2.4 | −ΔCt (HSV-1 [2]; 0.1 µg/mL): −0.50 ± 0.05 | inhibition of HSV-1 replication by RT-PCR (in words) (HSV-1 [2]; 1 µg/mL): inhibited the replication of HSV-1 | Ct (HSV-1 [2]; 1 µg/mL): 25.8 ± 3.3 | −ΔCt (HSV-1 [2]; 1 µg/mL): −7.7 ± 0.8 | reduction in viral DNA (HSV-1 [2]; 10 µg/mL): 3.9 log10 | Ct (HSV-1 [2]; 10 µg/mL): 31.2 ± 3.7 | −ΔCt (HSV-1 [2]; 10 µg/mL): −13.1 ± 1.6 | activity at 0.1 µg/mL (HSV-1 [2]): 70.7 ± 9.2% | activity at 1 µg/mL (HSV-1 [2]): 0.481 ± 0.06% | activity at 10 µg/mL (HSV-1 [2]): 0.0114 ± 0.001% | log reduction at 0.1 µg/mL (HSV-1 [2]): 0.15 ± 0.02 | log reduction at 1 µg/mL (HSV-1 [2]): 2.3 ± 0.3 | log reduction at 10 µg/mL (HSV-1 [2]): 3.9 ± 0.5 | Simultaneous Treatment SI (HSV-1 [4]): 14.4 ± 1.7 | Simultaneous Treatment IC50 (HSV-1 [4]): 13.8 ± 1.6 µg/mL | IC50 (HSV-1 [4]): 29.4 ± 3.4 µM
